Experimental data: US20160136138A1, “DRUG FOR TREATMENT OF NONALCOHOLIC FATTY LIVER DISEASE” (KOWA COMPANY, LTD., priority 2013, published 2016)

Legend:
[1] = system: LDL receptor knockout mice NASH model; assay: Western diet-fed LDL receptor knockout mice NASH model; assay type: in vivo; settings: 12 weeks, vs control
From the text: Effects on Western diet-fed LDL receptor knockout mice (Non Patent Document 4), which are known to develop fatty liver and hepatic inflammation, characteristic symptoms of NASH were examined. […] Male LDL receptor knockout mice ([…], Jackson Laboratories) were used in the experiment. Beginning at around 8 weeks of age, the mice were freely fed with Teklad Custom Research Diet (TD.88137, Harlan Teklad) as a Western diet for 13 weeks to develop NASH. • 2) Grouping: After 1 week of the Western diet feeding, the mice were subjected to blood sampling and weighing. The mice were divided into a control group (0.5% methyl cellulose aqueous solution), a Compound A 0.5 mg/kg administration group, and a fenofibrate 100 mg/kg administration group in such a way that there was no difference in plasma lipid level and weight between the groups. […] The administration period was 12 weeks. After the administration was completed, the livers were removed from the mice under pentobarbital sodium (50 mg/kg) anesthesia. The livers were fixed with paraformaldehyde and then subjected to the preparation of hematoxylin-eosin stained samples and immunostained samples for CD68 detection. In a blind study setting, using the hematoxylin-eosin stained samples, ballooning of hepatocytes was scored based on the following criteria (Kleiner et al. Hepatology 41, 1313-21, 2005). No balloon cells: 0 Few balloon cells: 1 Many balloon cells or ballooning: 2 The CD68 positive area in liver was measured with an image analysis system (WinROOF) in a blind study. The statistical analysis was performed using Stat […] Information Technology Inc.) (Ver. 1.1). Dunnett's test (N=14-15) was used for comparison with the control group, in which a significant difference with p<0.05 is indicated by the symbol *, and a significant difference with p<0.001 is indicated by the symbol ***.

[2] = system: KK-A^y mice fed with an MCD diet; assay: NASH model using KK-A^y mice fed with methionine-choline-deficient diet; assay type: in vivo; settings: Compound A 0.25 mg/kg mixed in MCD diet (0.00026%), 16 weeks; scale 0 to 3
Method: Effects on experimental animals, KK-A^y mice fed with a methionine-choline-deficient diet (MCD diet), which are known to develop fatty liver, a characteristic symptom of NASH (Nakano S. et al., Hepatol Res., 38(10), 1026-39, 2008) were examined.
As in Example 1, this experiment was conducted using (R)-2-[3-[[N-(benzoxazol-2-yl)-N-3-(4-methoxyphenoxy)propyl ]aminomethyl]phenoxy]butyric acid (Compound A), which is disclosed as Example 85 in Patent Document 1 listed above.
Male KK-A^y mice (KK-A^y/TaJc1, CLEA Japan, Inc.) were used in the experiment. Beginning at around 12 weeks of age, the mice were freely fed with an MCD diet for 16 weeks to develop NASH. • 2) Grouping:
The mice were divided into a normal diet group, a control group (fed with an MCD diet), a Compound A 0.25 mg/kg administration group, and a bezafibrate 60 mg/kg administration group in such a way that there was no difference in weight between the groups. • 3) Drug administration:
The doses were mixed in the feed. The control group was fed with an MCD diet containing no drug. […]
After the administration was completed, the livers were removed from the mice under pentobarbital sodium (50 mg/kg) anesthesia. […] Depending on the grade, the fatty liver was scored on a scale of 0 to 3 based on the following criteria. […]

Row | Structure (SMILES) | CD68 positive area in liver, reduction rate ([1]; Compound A 0.5 mg/kg orally once a day) [%] | ballooning of hepatocytes (score) ([1]; Compound A 0.5 mg/kg orally once a day, Dunnett's test) | steatosis score [2] | CD68 positive area in liver, reduction rate ([1]; fenofibrate 100 mg/kg orally once a day) [%]
1 | CC[C@@H](Oc1cccc(CN(CCCOc2ccc(OC)cc2)c2nc3ccccc3o2)c1)C(=O)O [Compound A, (R)-2-[3-[[N-(benzoxazol-2-yl)-N-3-(4-methoxyphenoxy)propyl]aminomethyl]phenoxy]butyric acid] | 81 | significant suppression of ballooning of hepatocytes | 0 | –
2 | CC(C)OC(=O)C(C)(C)Oc1ccc(C(=O)c2ccc(Cl)cc2)cc1 [fenofibrate, reference compound] | – | – | – | 73
